These results are taken from patent US20240254138A1, “TRICYCLIC PYRIMIDINES AS CYCLIN-DEPENDENT KINASE 7 (CDK7) INHIBITORS” (JANSSEN PHARMACEUTICA NV, priority 2021, published 2024).

The test system of experiment [1] is RNA Polymerase II Serine 5 phosphorylation in A549 cells overexpressing CDK7-mutant (C312S). The experiment is described as follows: Imaging-based cellular RNA PolII Ser5 phosphorylation assay in A549 cells overexpressing CDK7-mutant (C312S). To be noted: RNA PolII Ser5 phosphorylation, averaged over all measurements; for IC50: Homo sapiens, A549, A549 cells overexpressing CDK7-mutant (C312S), read-out: CDK7_A549 mutant hCDK7(pIC50) (converted); for CDK7_A549 mutant hCDK7(pIC50): A549 cells overexpressing CDK7-mutant (C312S). In kind it is cell-based, human. The method, boiled down: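 Readout was automated imaging of anti-phospho-Ser5 Rpb1 CTD immunofluorescence, with IC50 fitted to % control versus concentration. Cells were A549 stably overexpressing non-covalently targetable CDK7 C312S alongside wild-type, exposed to compound 3 h at 37 °C. DMSO and 10 μM reference compound served as controls.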

Experiment [2] has as its system RNA Polymerase II Serine 5 phosphorylation (Rpb1 CTD, downstream substrate of CDK7) in A549 cells. The experiment is described as follows: Imaging-based cellular RNA PolII Ser5 phosphorylation assay in A549 cells. In kind it is cell-based, human. The settings on record: wild-type CDK7, RNA PolII Ser5 phosphorylation, averaged over all measurements; for IC50: Homo sapiens, A549, A549 cells, read-out: CDK7_A549 Wild-type CDK7 (pIC50) (converted); for CDK7_A549 Wild-type CDK7 (pIC50): A549 cells. In outline: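 IC50 derived by fitting % control (DMSO high, 10 μM reference low) against concentration, with Hill slope. Readout: high-content imaging of phospho-Ser5 Rpb1 CTD antibody staining in fixed, permeabilized A549 cells exposed to compound 3 h after 20 h culture in 1% FBS DMEM.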

For experiment [3], the target named is CDK7/cyclinH/MAT1 trimeric complex (Homo sapiens, UniProt P50613). As to the kind of experiment: In vitro CDK7 assay, potency of irreversible covalent inhibitors (kinact/KI), coupled PK/LDH ADP readout at 340 nm. The settings on record: for Ki: CDK7 (20 nM enz.) (KI, μM); for Ki / CDK7 (20 nM enz.) (kinact, s^−1) / CDK7 (20 nM enz.) (kinact/KI, M^−1*s^−1): 20 nM enzyme; for kinact: read-out: CDK7 (20 nM enz.) (kinact, s^−1), 20 nM enzyme.
CDK7/cyclinH/MAT1 trimeric complex, sequence (P50613 whole entry): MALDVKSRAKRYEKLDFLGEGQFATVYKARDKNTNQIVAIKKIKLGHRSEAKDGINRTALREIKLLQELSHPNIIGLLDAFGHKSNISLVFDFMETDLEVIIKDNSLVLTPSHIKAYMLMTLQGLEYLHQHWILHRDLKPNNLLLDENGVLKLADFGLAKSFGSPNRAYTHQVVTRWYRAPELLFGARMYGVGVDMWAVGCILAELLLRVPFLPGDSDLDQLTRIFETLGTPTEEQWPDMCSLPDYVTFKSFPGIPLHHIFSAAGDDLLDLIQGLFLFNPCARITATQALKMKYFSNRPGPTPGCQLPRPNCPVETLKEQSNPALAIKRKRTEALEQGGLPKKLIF
CDK7/cyclinH/MAT1 trimeric complex, sequence (P51946 whole entry partner): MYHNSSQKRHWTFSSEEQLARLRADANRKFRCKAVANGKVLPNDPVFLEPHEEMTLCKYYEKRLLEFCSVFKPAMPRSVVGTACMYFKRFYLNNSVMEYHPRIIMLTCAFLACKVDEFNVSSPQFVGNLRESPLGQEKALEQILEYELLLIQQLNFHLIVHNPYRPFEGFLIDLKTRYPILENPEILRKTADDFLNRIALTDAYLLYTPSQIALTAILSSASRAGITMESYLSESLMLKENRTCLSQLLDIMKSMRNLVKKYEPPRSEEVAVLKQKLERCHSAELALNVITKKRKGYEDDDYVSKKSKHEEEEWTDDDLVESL
CDK7/cyclinH/MAT1 trimeric complex, sequence (P51948 whole entry partner): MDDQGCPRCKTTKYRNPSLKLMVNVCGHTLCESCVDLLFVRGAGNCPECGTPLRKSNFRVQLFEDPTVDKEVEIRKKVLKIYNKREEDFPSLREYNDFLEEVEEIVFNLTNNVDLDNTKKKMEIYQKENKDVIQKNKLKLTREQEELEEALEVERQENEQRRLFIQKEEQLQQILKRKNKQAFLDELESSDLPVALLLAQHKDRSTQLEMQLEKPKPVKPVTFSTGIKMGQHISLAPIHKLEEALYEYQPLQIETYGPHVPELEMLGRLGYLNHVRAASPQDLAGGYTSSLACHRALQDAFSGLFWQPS

The mark [4] stands for this setting: read-out: CDK7 (20 nM enz.) (kinact/KI, M^−1*s^−1), 20 nM enzyme.
[5] abbreviates: read-out: CDK7 (20 nM enz.) (kobs/[I], M^−1*s^−1), 20 nM enzyme.

Read-outs that look alike come from different tables or passages of the source. Some results are limits rather than exact numbers.

For the compound `C=CC(=O)N1CC[C@@H](N2CC(c3cc(C)c4c(c3)Nc3nccc(N5CCOCC5)c3CO4)C2)C1` (single isomer, unassigned) [Compound 327], in experiment [1], the IC50 was around 10000 nM. The IC50 in experiment [2] was 79.4 nM. Also, in experiment [3], the Ki stood at 0.0302 µM and the kinact worked out at 4.16e-05 s⁻¹. In addition, the kinact/KI in experiment [3] (setting [4]) turned out to be 1380 M⁻¹ s⁻¹.
The corresponding values for `CC#CC(=O)N1CC(N2CC[C@@H](c3cc4c(c(C)n3)O[C@@H](C)c3c(N5CCOCC5)ccnc3N4)C2)C1` (single isomer, unassigned) [Compound 328] are above 10000 nM, 224 nM, 0.472 µM, 2.77e-05 s⁻¹ and 58.8 M⁻¹ s⁻¹.
Take `C=CC(=O)N1CC[C@H](N2CC(c3cc(C)c4c(c3)Nc3nccc(N5CCOCC5)c3CO4)C2)C1` (single isomer, unassigned) [Compound 329]: the IC50 in experiment [1] was above 10000 nM. Also, the IC50 in experiment [2] is 79.4 nM. Further, in experiment [3], the Ki was found to be 0.0243 µM and the kinact is 3.81e-05 s⁻¹. Also, the kinact/KI in experiment [3] (setting [4]) was 1570 M⁻¹ s⁻¹.
`Cc1nc(C2CCN([C@@H]3CCN(C(=O)/C=C/C(=O)O)C3)CC2)cc2c1OCc1c(-c3cnn(C)c3)ccnc1N2` (single isomer, unassigned) [Compound 330]: in experiment [1], the IC50 was above 10000 nM. Besides, the IC50 in experiment [2] is 7240 nM. Also, in experiment [3], the Ki came out at 4.58 µM and the kinact turned out to be 8.82e-05 s⁻¹. In addition, the kinact/KI in experiment [3] (setting [4]) came out at 19.2 M⁻¹ s⁻¹.
The corresponding values for `Cc1nc(C2CCN([C@H]3CCN(C(=O)/C=C/C(=O)O)C3)CC2)cc2c1OCc1c(-c3cnn(C)c3)ccnc1N2` (single isomer, unassigned) [Compound 332] are above 10000 nM, 7590 nM, 4.85 µM, 2.19e-05 s⁻¹ and 4.51 M⁻¹ s⁻¹.
Take `C=CC(=O)N1CC(N2CC(c3cc4c(c(C)n3)O[C@H](C)c3c(N5CCOCC5)ccnc3N4)C2)C1` (single isomer, unassigned) [Compound 343]: in experiment [1], the “CDK7_A549 mutant hCDK7(pIC50)” value is reported as below 5. Moreover, in experiment [2], the “CDK7_A549 Wild-type CDK7 (pIC50)” value stood at 7.15. Also, in experiment [3], the “CDK7 (20 nM enz.) (kinact, s^−1)” value came out at 5.902e-05 s⁻¹; the “CDK7 (20 nM enz.) (kinact/KI, M^−1*s^−1)” value stood at 1172.91 M⁻¹ s⁻¹; the Ki is 0.0503 µM.
`CC#CC(=O)N1CC(N2CCC(c3cc4c(c(C)n3)O[C@@H](C)c3c(N5CCOCC5)ccnc3N4)CC2)C1` (single isomer, unassigned) [Compound 344]: the IC50 in experiment [1] was above 10000 nM; in experiment [2] it was 3980 nM. This compound came in with a Ki in experiment [3] of 17.1 µM. Besides, in experiment [3], the kinact stood at 5.4e-05 s⁻¹. Moreover, the kinact/KI in experiment [3] (setting [4]) worked out at 3.15 M⁻¹ s⁻¹.
The corresponding values for `CC#CC(=O)N1CC(N2CCC(c3cc4c(c(C)n3)O[C@H](C)c3c(N5CCOCC5)ccnc3N4)CC2)C1` (single isomer, unassigned) [Compound 345] are above 10000 nM, 87.1 nM, 0.131 µM, 3.88e-05 s⁻¹ and 296 M⁻¹ s⁻¹.
In the case of `C=CC(=O)N1CC(N2CCC(c3cc(C#N)c4c(c3)Nc3nccc(N5CCOCC5)c3[C@@H](C)O4)CC2)C1` (single isomer, unassigned) [Compound 354], the IC50 in experiment [1] is 4570 nM; in experiment [2], 15.1 nM. In addition, the kinact/KI in experiment [3] (setting [5]) is 2670 M⁻¹ s⁻¹.
Take `CC#CC(=O)N1CC(N2CC(c3cc4c(c(C)n3)O[C@H](C)c3c(N5CCOCC5)ccnc3N4)C2)C1` (single isomer, unassigned) [Compound 355]: the IC50 in experiment [1] is above 10000 nM. In addition, in experiment [2], the IC50 was 195 nM. In addition, in experiment [3], the Ki turned out to be 0.211 µM and the kinact worked out at 3.51e-05 s⁻¹. In addition, in experiment [3] (setting [4]), the kinact/KI was 166 M⁻¹ s⁻¹.
For `C=CC(=O)N1CC[C@H](N2CC(c3cc(C)c4c(c3)Nc3nccc(-c5cnn(C)c5)c3CO4)C2)C1` (single isomer, unassigned) [Compound 361], the IC50 in experiment [1] was around 10000 nM. Moreover, the IC50 in experiment [2] is 60.3 nM. In experiment [3], the Ki was 0.0291 µM and the kinact came out at 5.06e-05 s⁻¹. Also, the kinact/KI in experiment [3] (setting [4]) is 1740 M⁻¹ s⁻¹.
The corresponding values for `C=CC(=O)N1CC[C@@H](N2CC(c3cc(C)c4c(c3)Nc3nccc(-c5cnn(C)c5)c3CO4)C2)C1` (single isomer, unassigned) [Compound 362] are 10000 nM, 58.9 nM, 0.0325 µM, 6.59e-05 s⁻¹ and 2030 M⁻¹ s⁻¹.
Consider `C=CC(=O)N1CC[C@@H](N2CCC(c3cc4c(c(C)n3)OCc3c(N5CCOCC5)ccnc3N4)CC2)C1` (single isomer, unassigned) [Compound 363], for which, in experiment [1], the “CDK7_A549 mutant hCDK7(pIC50)” value is below 5. In experiment [2], the “CDK7_A549 Wild-type CDK7 (pIC50)” value worked out at 7.52. Besides, in experiment [3], the “CDK7 (20 nM enz.) (kinact, s^−1)” value was determined as 5.097e-05 s⁻¹; the “CDK7 (20 nM enz.) (kinact/KI, M^−1*s^−1)” value stood at 1874.15 M⁻¹ s⁻¹; the Ki was 0.0272 µM.
As for `C=C(C(=O)N1CC[C@@H](N2CCC(c3cc4c(c(C)n3)OCc3c(-c5cnn(C)c5)ccnc3N4)CC2)C1)n1cccn1` (single isomer, unassigned) [Compound 365], the IC50 in experiment [1] is above 10000 nM. For the same compound, the IC50 in experiment [2] is 43.7 nM. Besides, in experiment [3], the Ki was 0.046 µM and the maximal inactivation rate constant (kinact) came to 4.07e-05 s⁻¹. The kinact/KI in experiment [3] (setting [4]) came out at 885 M⁻¹ s⁻¹.
In the case of `CC#CC(=O)N1CC(N2CCC(c3cc4c(c(C)n3)O[C@H](C)c3c(N5CCOCC5)ccnc3N4)CC2)C1` (single isomer, unassigned) [Compound 370], in experiment [1], the IC50 was above 10000 nM. Besides, in experiment [2], the “CDK7_A549 Wild-type CDK7 (pIC50)” value is 7.19. Besides, in experiment [3], the “CDK7 (20 nM enz.) (kinact/KI, M^−1*s^−1)” value is 206.483 M⁻¹ s⁻¹; the Ki was found to be 0.112 µM; the inactivation rate constant (kinact) was 2.32e-05 s⁻¹.
Consider `C=C(C(=O)N1CC[C@H](N2CCC(c3cc4c(c(C)n3)OCc3c(-c5cnn(C)c5)ccnc3N4)CC2)C1)n1cccn1` (single isomer, unassigned) [Compound 372], for which the values for the IC50 in experiment [1] and in experiment [2] were above 10000 nM and 70.8 nM, respectively. Further, the Ki in experiment [3] was determined as 0.0621 µM. In experiment [3], the kinact worked out at 3.74e-05 s⁻¹. In addition, in experiment [3] (setting [4]), the kinact/KI amounted to 603 M⁻¹ s⁻¹.
The corresponding values for `CC#CC(=O)N1CCC(N2CC(c3cc4c(c(C5CC5)n3)O[C@@H](C)c3c(N5CCOCC5)ccnc3N4)C2)CC1` (single isomer, unassigned) [Compound 374] are above 10000 nM, 457 nM, 1.36 µM, 3.18e-05 s⁻¹ and 23.3 M⁻¹ s⁻¹.
For the compound `C=CC(=O)N1CCC(N2CC(c3cc4c(c(C5CC5)n3)O[C@@H](C)c3c(N5CCOCC5)ccnc3N4)C2)CC1` (single isomer, unassigned) [Compound 375], in experiment [1], the IC50 is above 10000 nM. Moreover, the IC50 in experiment [2] was 1290 nM. Moreover, in experiment [3], the Ki worked out at 2.12 µM and the kinact worked out at 2.58e-05 s⁻¹. Besides, the kinact/KI in experiment [3] (setting [4]) turned out to be 12.2 M⁻¹ s⁻¹.
The corresponding values for `CC#CC(=O)N1CCC(N2CC(c3cc4c(c(C5CC5)n3)O[C@H](C)c3c(N5CCOCC5)ccnc3N4)C2)CC1` (single isomer, unassigned) [Compound 376] are 5010 nM, 35.5 nM, 0.0467 µM, 9.41e-05 s⁻¹ and 2020 M⁻¹ s⁻¹.
Regarding `C=CC(=O)N1CCC(N2CC(c3cc4c(c(C5CC5)n3)O[C@H](C)c3c(N5CCOCC5)ccnc3N4)C2)CC1` (single isomer, unassigned) [Compound 377], the IC50 in experiment [1] is 5750 nM; in experiment [2], 50.1 nM. This compound also came in with a Ki in experiment [3] of 0.0468 µM. The kinact in experiment [3] worked out at 2.2e-05 s⁻¹. Moreover, the kinact/KI in experiment [3] (setting [4]) was found to be 469 M⁻¹ s⁻¹.
The corresponding values for `CC#CC(=O)N1CC(N2CC[C@@H](c3cc4c(c(C)n3)OCc3c(N5CCOCC5)ccnc3N4)C2)C1` (single isomer, unassigned) [Compound 386] are above 10000 nM, 1620 nM, 0.399 µM, 1.64e-05 s⁻¹ and 41.1 M⁻¹ s⁻¹.
Consider `CC#CC(=O)N1CC(N2CC[C@H](c3cc4c(c(C)n3)OCc3c(N5CCOCC5)ccnc3N4)C2)C1` (single isomer, unassigned) [Compound 387], for which the IC50 in experiment [1] was above 10000 nM. The IC50 in experiment [2] is 977 nM. In experiment [3], the Ki came out at 0.451 µM and the maximal inactivation rate constant (kinact) was determined as 2.21e-05 s⁻¹. In addition, the kinact/KI in experiment [3] (setting [4]) is 49.1 M⁻¹ s⁻¹.
In the case of `C=CC(=O)N1CC[C@H](N2CC(c3cc(C)c4c(c3)Nc3nccc(N5CCOCC5)c3[C@@H](C)O4)C2)C1` (single isomer, unassigned) [Compound 388], the IC50 in experiment [1] is 7240 nM; in experiment [2], around 22.9 nM. Further, in experiment [3] (setting [5]), the kinact/KI stood at 1270 M⁻¹ s⁻¹.
As to `C=CC(=O)N1CC(N2CC[C@@H](c3cc4c(c(C)n3)O[C@@H](C)c3c(N5CCOCC5)ccnc3N4)C2)C1` (single isomer, unassigned) [Compound 392], the IC50 in experiment [1] is around 10000 nM; in experiment [2], 129 nM. This compound also gave a Ki in experiment [3] of 0.0655 µM. Besides, the kinact in experiment [3] was found to be 5.4e-05 s⁻¹. The kinact/KI in experiment [3] (setting [4]) worked out at 823 M⁻¹ s⁻¹.
